Tests used:
[1] = tested on: erlotinib-resistant HCC827 subcutaneous tumor; experiment: Anti-tumor evaluation (in vivo), erlotinib-resistant HCC827 subcutaneous cancer-bearing mouse model; settings: erlotinib 12.5 mg/kg/day and/or compound A 30 mg/kg/day, QD, po; for tumor volume on the starting day of administration: baseline, measured the day before start
Source text: HCC827 cells (EGFR mutation-positive lung cancer cell line) were subcutaneously implanted to a dorsal part of an immunodeficient mouse (CB17/Icr-Prkdcscid/CrlCrlj, male, 4-week-old (Charles River Laboratories Japan, Inc.)) to prepare HCC827 subcutaneous cancer-bearing mice.

[2] = tested on: phosphorylated AXL in AXL/PC9 cells; experiment: Western blot of phosphorylated AXL in AXL/PC9 cells; type: cell-based, human; settings: compound A at 100 nM, phospho-AXL antibody
PC9 vec. cells = experiment: Proliferation inhibition (in vitro), PC9 vec. control cells, CellTiter-Glo; type: cell-based; settings: Homo sapiens, 96 h, 4 days culture
Procedure: The obtained PC9/AXL cells and PC9 vec. cells were inoculated into a 384-well plate, respectively, using an RPMI 1640 medium (Sigma). On the same day, a DMSO solution of the test compound depending on the test concentration or DMSO alone was added thereto, followed by culturing at 37° C. for 4 days in the presence of 5% CO2. Thereafter, the number of cells was measured using a cell count reagent (CellTiter-Glo™ Luminescent Cell Viability Assay (Promega)).

| SMILES | tumor volume on the starting day of administration [1] | tumor decreasing effect [1] | tumor volume after 12 days [1] | AXL phosphorylation [2] | IC50 (PC9 vec. cells) |
| --- | --- | --- | --- | --- | --- |
| CCc1nc(C(N)=O)c(Nc2ccc(N3CCC(N4CCN(C)CC4)CC3)c(OC)c2)nc1NC1CCOCC1 [compound A, 6-ethyl-3-({3-methoxy-4-[4-(4-methylpiperazin-1-yl)piperidin-1-yl]phenyl}amino)-5-(tetrahydro-2H-pyran-4-ylamino)pyrazine-2-carboxamide] | 339.2 mm^3 | did not show a tumor decreasing effect | 739.2 mm^3 | completely inhibited | – |
| C#Cc1cccc(Nc2ncnc3cc(OCCOC)c(OCCOC)cc23)c1 [erlotinib, reference compound] | 335.8 mm^3 | did not show a tumor decreasing effect | – | – | 108 nM |

Reference: patent US11925638B2, “Pharmaceutical composition comprising diamino heterocyclic carboxamide compound as active ingredient” (ASTELLAS PHARMA INC., priority 2014, dated 2024)
